# Data: patent publication US9212209B2, “Screening methods for spinal muscular atrophy” (Indiana University Research and Technology Corporation, priority 2012, dated 2015)
# Where “and” joins values, the source holds several entries; their conditions need not be identical. Equal values may be shown once. Read-outs that look alike come from different tables or passages of the source.
# Assays:
# SMN2-luciferase reporter [1] = experiment: SMN2-luciferase reporter assay (clonal HEK-293 SMN2-luc cells); assay type: cell-based, human; design: increase of luciferase activity: dose or concentration left out as unconfirmed; conditions: for Na-But RLU ave: 0.5 mg/mL sodium butyrate; for EC50 / Emax: Homo sapiens; for Emax: read-out: Max % Activity; for Maximum % activation: Table 7; for Active: reporter assay; for S/B: 0.5 mg/mL sodium butyrate vs DMSO
# SMN2-luciferase reporter [2] = experiment: as above; assay type: cell-based, human; conditions: for S/B: 0.5 mg/mL sodium butyrate vs DMSO
# SMA mice = experiment: SMA mice, intraperitoneal dosing: lifespan, weight, time to right; assay type: in vivo, mouse; conditions: for lifespan / weight of the treated animals: IP once daily post-natal day 1-10, compounds in 20% DMSO, words; for lifespan: 3-4 animals each; for Time to right: individual pup, raw data
# Description: The animal studies included new derivatives of LDN-76070 and LDN-75654. Mice were injected intraperitoneally once daily from post-natal day 1-10. […] Compounds LDN-212014, LDN-212016, LDN-212351, and LDN-212391 were injected into a cohort of animals (3-4 each). […] In the Kaplan-Meier curve that DMSO control decreased survival by 50%—the compounds were in […] (FIG. 26A).
# LDN-212014 and LDN-76070 were further tested in A7 SMA model mice. Mice were dosed using compounds dissolved in 100% DMSO injected at 20 mg/kg with each dose administered once daily by intraperitoneal injection. As shown in the black curves in the Kaplan-Meier plot, control animals lived 4-5 days longer than the DMSO vehicle treated animals, indicating toxicity. […] In fact, the compounds display a statistically significant increase in survival compared with the untreated animals. These compounds extend the lifespan of SMA mice despite the DMSO toxicity.
# In ‘time to right’ experiments, animals are placed on their backs and the duration for animals to right themselves is recorded. Animals that are unable to right in less than 30 seconds are scored as a failure. DMSO treated animals were unable to right themselves, while a small percentage of untreated animals display the ability to right themselves for up to postnatal day (PND) 11. A larger percentage of treated animals can right themselves past PND 17, and in the case of one animal as late as PND 21.
# [3] = Solubility in PBS / aqueous solution; assay type: physicochemical
# [4] = Liver microsome stability; conditions: for Stabilityin liver microsomes: Table 8; for Stability: Table 9; for half-life: mouse, liver microsomes
# [5] = system: SMN-luciferase transcripts; experiment: qRT-PCR of SMN-luciferase transcripts in SMN2-luc cells; assay type: cell-based, human; conditions: 24 hours, relative to DMSO, normalized to GAPDH, aclarubicin at 300 nM, words
# Description: Compounds were tested at three concentrations that display maximal activity in the luciferase assay. Cells were treated as described above for the luciferase assay. Cells were harvested by trypsinization, neutralized with trypsin inhibitor, and washed. RNA was isolated from the cells using TRIZOL Reagent (Invitrogen 15596-026). cDNA was generated using the IMPROM-II Reverse Transcription System (Promega A3801).
# The forward primer pair recognizes the exon 5-6 junction, which includes a restriction site that was engineered into the reporter and will exclude amplification of endogenous SMN mRNA. The reverse primers recognize either exon 7 or luciferase for detection of full-length or total SMN-luciferase transcripts respectively. For a reference control, cDNA from the housekeeping gene glyceraldehyde-3-phosphate dehydrogenase (GAPDH) was amplified. The primers used include SMN exon5-forward ([…]) (SEQ ID NO: 3), luciferase-reverse ([…]) (SEQ ID NO: 4), exon7-reverse ([…]) (SEQ ID NO: 5), GAPDH-reverse (G3A) ([…]) (SEQ ID NO: 6) and GAPDH-forward (G3S) ([…]) (SEQ ID NO: 7). qPCR was performed as described in the protocol for iQ SYBRGREEN SUPERMIX (Biorad 170-8882) using an EPPENDORF Mastercycler ep realplex^4 Thermo Cycler. Reactions were incubated for a 10 minute, 94° C. hot start followed by 45 cycles of the following: 94° C. for 45 second, 60° C. for 15 seconds, 72° C. for 45 seconds. Melting curves for each reaction were obtained. Each sample was assayed in triplicate and every plate contained a 5-point cDNA dilution course to calculate amplification efficiency for each primer pair. The Pfaffl method was used to determine the change in transcript levels relative to the DMSO and normalized to GAPDH (Pfaffl, M. W., “A new mathematical model for relative quantification in real-time RT-PCR,” Nucleic Acids Res 2001, 29(9), 3e45).
# Based on the new reporter design, it was predicted that this screen could detect increased SMN-luciferase protein levels caused by compounds that stimulate SMN2 transcription, exon 7 inclusion, or by increasing the half-life of the SMN mRNA or protein. Quantitative reverse transcriptase PCR (qRT-PCR) was used to analyze SMN-luciferase mRNAs. All assays used RNA from control and compound-treated SMN2-luc cells and primers pairs were chosen to amplify only the SMN-luciferase derived transcripts (FIG. 4A). A pair of primers were used that specifically detects both full-length (exon 7 included) and Δ7 (exon 7 excluded) SMN-luciferase transcripts (primers 1 and 3). To measure changes in exon 7 splicing efficiency, a primer pair was used that detects only the full-length (exon 7 included) SMN-luciferase transcript (primers 1 and 2).
# For each sample, the percent increase in the amount of total SMN-luciferase transcripts (gray bar) and exon 7 included full-length SMN-luciferase transcripts (white bar) was plotted (FIG. 4). Compounds that increase transcription should show increased total SMN-luciferase transcripts (gray bar) with a proportional increase for exon 7 included transcripts (white bar), assuming that proper splicing of exon 7 is not rate limiting. Compounds that stimulate exon 7 inclusion should increase the amount of exon 7 included full-length transcript (white bar) detected with little to no change in the expression of total SMN-luciferase transcripts (gray bar). In these experiments, cells were treated with compound, harvested, and each cell pellet was divided for isolation of RNA and to assay luciferase activity. Each qRT-PCR sample was normalized to the housekeeping gene glyceraldehyde-3-phosphate dehydrogenase (GAPDH). The Pfaffl method was used to calculate the change in the amount of total SMN mRNA and determine whether compound treatments increased SMN transcripts.
# [6] = 96-well validation, 25,000 cells per well, 24 hrs
# [7] = 96-well validation, 25,000 cells per well, 48 hrs
# [8] = 96-well validation, 50,000 cells per well, 24 hrs
# [9] = 96-well validation, 50,000 cells per well, 48 hrs
# [10] = 384-well LDDN screen, 10,000 cells per well, 24 hrs
# [11] = 384-well validation, 5,000 cells per well, 24 hrs
# [12] = 384-well validation, 10,000 cells per well, 24 hrs
# [13] = HEK293, Table 7, read-out: EC50
# [14] = HEK293, reporter assay, Table 6, read-out: Ec50
# [15] = HEK293, reporter assay, Table 6
# [16] = PBS, aqueous buffer, read-out: Maximal solubility in PBS
# [17] = aqueous solution, Table 8, grades, read-out: Solubility in aqueous solution
SMILES,EC50 (SMN2-luciferase reporter [1]; [13]),EC50 (SMN2-luciferase reporter [1]; [14]),Emax (SMN2-luciferase reporter [1]; [15]),Maximum % activation (SMN2-luciferase reporter [1]),Active (SMN2-luciferase reporter [1]; Table 6),lifespan (SMA mice),weight of the treated animals (SMA mice),Time to right (SMA mice; PND 6),Time to right (SMA mice; PND 7),Time to right (SMA mice; PND 8),Time to right (SMA mice; PND 9),Time to right (SMA mice; PND 10),Time to right (SMA mice; PND 11),Time to right (SMA mice; PND 12),Time to right (SMA mice; PND 13),Time to right (SMA mice; PND 14),Time to right (SMA mice; PND 15),Time to right (SMA mice; PND 16),Time to right (SMA mice; PND 17),Time to right (SMA mice; PND 18),other results
CCCC(=O)[O-].[Na+] [Na-But],–,–,–,–,–,–,–,–,–,–,–,–,–,–,–,–,–,–,–,–,"Na-But RLU ave (SMN2-luciferase reporter [1]; [6]): 2046 RLU; Na-But RLU ave (SMN2-luciferase reporter [1]; [7]): 3696 RLU; Na-But RLU ave (SMN2-luciferase reporter [1]; [8]): 4798 RLU; Na-But RLU ave (SMN2-luciferase reporter [1]; [9]): 7505 RLU; Na-But RLU ave (SMN2-luciferase reporter [1]; [10]): 13894 RLU; Na-But RLU ave (SMN2-luciferase reporter [1]; [11]): 1332 RLU; Na-But RLU ave (SMN2-luciferase reporter [1]; [12]): 39287 RLU; Na-But RLU ave (SMN2-luciferase reporter [2]; 0.5 mg/mL sodium butyrate, 384-well validation, 7,500 cells per well, 24 hrs): 2832 RLU"
COc1cc2c(c(OC)c1OC)C(c1cc(Cl)ccc1F)CC(=O)N2 (stereo not drawn) [LDN-212351],9.8 µM,12 µM,150%,168.5 ± 10.6%,Yes,extension of lifespan,increased,dead and Fail (Fail = >30 sec) (2×) and 3 seconds,dead and Fail (Fail = >30 sec) (2×) and 5 seconds,dead and Fail (Fail = >30 sec) (3×),dead and 13 seconds and Fail (Fail = >30 sec) (2×),dead and Fail (Fail = >30 sec) (3×),dead (3×) and Fail (Fail = >30 sec),dead (3×) and Fail (Fail = >30 sec),dead (3×) and Fail (Fail = >30 sec),dead (3×) and Fail (Fail = >30 sec),dead,dead,dead,dead,"Time to right (SMA mice; PND 19): dead; Time to right (SMA mice; PND 20): dead; solubility [3, 16]: 500 µM; solubility [3, 17]: < 500 µM; Stabilityin liver microsomes [4]: 45 min; Stability [4]: 45 min; half-life ([4]; T1/2 in liver microsomes, Table 7): 45 min; half-life ([4]; t1/2 in mouse liver microsomes, mouse liver microsomes): 45 min"
CC(C)c1cc(C(=O)Nc2nc3ccccc3[nH]2)no1 [LDN-212016],0.3 µM,0.3 µM,250%,162.4 ± 62.4%,Yes,extension of lifespan,increased,Fail (Fail = >30 sec),Fail (Fail = >30 sec) (3×) and 25 seconds,Fail (Fail = >30 sec),Fail (Fail = >30 sec),Fail (Fail = >30 sec) (3×) and 12 seconds,Fail (Fail = >30 sec) (3×) and 9 seconds,Fail (Fail = >30 sec),dead and Fail (Fail = >30 sec) (2×) and 11 seconds,dead (2×) and Fail (Fail = >30 sec) (2×),dead (3×) and Fail (Fail = >30 sec),dead (3×) and Fail (Fail = >30 sec),dead (3×) and Fail (Fail = >30 sec),dead,"Time to right (SMA mice; PND 19): dead; Time to right (SMA mice; PND 20): dead; solubility [3, 16]: 500 µM; solubility [3, 17]: < 500 µM; Stabilityin liver microsomes [4]: 3 min; Stability [4]: 3 min"
"CCCC(=O)[O-].[Na+] [sodium butyrate, reference compound]",–,–,–,–,–,–,–,–,–,–,–,–,–,–,–,–,–,–,–,–,"S/B (SMN2-luciferase reporter [1]; [6]): 3.0; S/B (SMN2-luciferase reporter [1]; [8]): 3.5; S/B (SMN2-luciferase reporter [1]; [9]): 2.9; S/B (SMN2-luciferase reporter [1]; [11]): 2.6; S/B (SMN2-luciferase reporter [1]; [12]): 4.9; increase of luciferase activity (SMN2-luciferase reporter [1]; 96-well format, sodium butyrate): more than 3 fold; EC50 (SMN2-luciferase reporter [1]; HEK293): 1000 µg/mL; Max. fold increase (SMN2-luciferase reporter [1]; cell-based reporter response to known SMN2 modulating compounds): 10 fold; S/B (SMN2-luciferase reporter [2]; [7]): 2.6; S/B (SMN2-luciferase reporter [2]; [10]): 3.0; S/B (SMN2-luciferase reporter [2]; 384-well validation, 7,500 cells per well, 24 hrs): 2.8; exon 7 included full-length SMN-luciferase transcripts [5]: increased; total SMN-luciferase transcripts [5]: increased"
